Experimental data from patent US7268128B2, “1,3,5-trisubstituted-5-phenyl and 5-pyridyl pyrazolopyrimidinone derivatives having PDE7 inhibiting action” (Ausbio Pharma Co., Ltd., priority 2001, dated 2007).
Where a name gives a salt, the structure may show the parent alone.

What follows are compounds tested against T1, PDE7 (type VII phosphodiesterase) (Homo sapiens, UniProt Q13946) (assay: PDE7 inhibiting activity (3H-cAMP hydrolysis, active fraction from MOLT-4 cells)). Settings: PDE7 fraction from MOLT-4 cells, 0.064 μM cAMP, 10 μM rolipram present, 2 hours at 25° C.; read-out: IC50 values for phosphodiesterase inhibiting activities (PDE7).
T1 construct: endogenous in cells; host or cells: MOLT-4 (ATCC CRL-1582), soluble fraction, HiTrapQ anion-exchange fraction
T1 sequence (Q13946 whole entry): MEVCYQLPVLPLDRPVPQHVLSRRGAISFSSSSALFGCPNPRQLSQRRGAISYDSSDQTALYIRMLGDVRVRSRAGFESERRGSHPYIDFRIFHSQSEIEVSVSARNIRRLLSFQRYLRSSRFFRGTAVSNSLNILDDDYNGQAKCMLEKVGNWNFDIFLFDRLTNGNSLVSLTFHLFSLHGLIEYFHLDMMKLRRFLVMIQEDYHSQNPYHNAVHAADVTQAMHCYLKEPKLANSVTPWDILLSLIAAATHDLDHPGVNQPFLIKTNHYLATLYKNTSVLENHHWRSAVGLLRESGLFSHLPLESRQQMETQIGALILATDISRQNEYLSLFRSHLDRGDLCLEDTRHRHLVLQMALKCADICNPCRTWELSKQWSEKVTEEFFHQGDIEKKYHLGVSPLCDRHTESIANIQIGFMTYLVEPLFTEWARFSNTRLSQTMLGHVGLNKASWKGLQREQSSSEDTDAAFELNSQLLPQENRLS
Format: biochemical
Protocol: To evaluate the compounds of the present invention for the ability to suppress PDE7 (type VII phosphodiesterase), the method of Biochemical Pharmacol. 48(6), 1219-1223 (1994) was partially modified to perform the following assay:
1) PDE7 (type VII phosphodiesterase) active fraction was obtained. That is, human acute lymphoblastoid lymphoma T cell strain MOLT-4 (purchasable from ATCC under ATCC No. CRL-1582) was cultured in RPMI1640 medium containing 10% fetal bovine serum to obtain 5×10^8 MOLT4 cells. The cells were harvested by centrifugation, and suspended in 10 ml of buffer A (25 mM tris-HCl, 5 mM 2-mercaptoethanol, 2 mM benzamidine, 2 mM EDTA, 0.1 mM 4-(2-aminoethyl)benzenesulfonyl hydrochloride, pH 7=7.5). The cells were homogenized in a Polytoron homogenizer, and centrifuged (4° C., 25,000 G, 10 min). The supernatant was further ultracentrifuged (4° C., 100,000 G, 60 min), and the resulting supernatant was filtered through a 0.2 μm filter to obtain a soluble fraction.
2) HiTrapQ column (5 ml×2) equilibrated with buffer A was charged with the resulting soluble fraction. Phosphodiesterase was eluted using 300 ml of buffer A containing a linear gradient solution of 0 to 0.8M sodium chloride to collect sixty 5 ml fractions. Each fraction was tested for cAMP metabolizing phosphodiesterase activity.
3) The test compounds at desired concentrations were each reacted for 2 hours at 25° C. in a reactant mixture containing 20 mM tris-HCl (pH 7.5), 1 mM MgCl2, 100 μM EDTA, 330 μg/ml bovine serum albumin, 4 μg/ml 5′-nucleotidase, 0.1 μCi^3H-cAMP (0.064 μM cAMP), 10 μM rolipram, and the type VII phosphodiesterase stored solution. QAE-Sephadex suspended in 10 mM HEPES-Na (pH 7.0) was added to the reaction mixture, and the mixture was allowed to stand for 5 minutes. Then, the supernatant was recovered, and QAE-Sephadex was further added, followed by allowing the mixture to stand for 5 minutes. Then, the resulting supernatant was measure for radioactivity.
4) IC50, as the concentration of the test compound that inhibited 50% of the metabolic activity of PDE7, was calculated for each of the compounds.

Row | SMILES | IC50 [µM]
1 | COc1cc(S(=O)(=O)N(C)CCN(C)C)ccc1-c1nc2c(c(C3CCCCC3)nn2C)c(=O)[nH]1 [Example 158, 4-(3-Cyclohexyl-1-methyl-4-oxo-4,5-dihydro-1H-pyrazolo[3,4-d]pyrimidin-6-yl)-N-(2-(dimethylamino)ethyl)-3-methoxy-N-methylbenzenesulfonamide monomethanesulfonate] | ≤ 1
2 | Cn1nc(C2CCCCC2)c2c(=O)[nH]c(-c3ccccn3)nc21 [Example 25, 3-Cyclohexyl-1-methyl-6-(2-pyridinyl)-1,5-dihydro-4H-pyrazolo[3,4-d]pyrimidin-4-one] | ≤ 1
3 | COc1cc(N2CCC(N(C)C)CC2)ccc1-c1nc2c(C)nn(C3CCCCC3)c2c(=O)[nH]1 [Example 245, 1-Cyclohexyl-5-{4-[4-(dimethylamino)-1-piperidinyl]-2-methoxyphenyl}-3-methyl-1,6-dihydro-7H-pyrazolo[4,3-d]pyrimidin-7-one] | ≤ 1
4 | COc1cc(N2CCNCC2)ccc1-c1nc2c(c(C3CCCCCC3)nn2C)c(=O)[nH]1 [Example 78, 3-Cycloheptyl-6-[2-methoxy-4-(1-piperazinyl)phenyl]-1-methyl-1,5-dihydro-4H-pyrazolo[3,4-d]pyrimidin-4-one monomethanesulfonate] | ≤ 0.01
5 | CCOc1cc(N2CCC(NC)CC2)ccc1-c1nc2c(C)nn(C3CCCCC3)c2c(=O)[nH]1 [Example 121, 1-Cyclohexyl-5-{2-ethoxy-4-[4-(methylamino)-1-piperidinyl]phenyl}-3-methyl-1,6-dihydro-7H-pyrazolo[4,3-d]pyrimidin-7-one] | ≤ 0.01
6 | CCn1nc(C2CCCCC2)c2c(=O)[nH]c(-c3ccc(N4CCC(NC)CC4)cc3OC)nc21 [Example 196] | ≤ 1
7 | COc1cc(N2CCCNCC2)ccc1-c1nc2c(c(C3CCCCC3)nn2C)c(=O)[nH]1 [Example 134, 3-Cyclohexyl-6-[4-(1,4-diazepan-1-yl)-2-methoxyphenyl]-1-methyl-1,5-dihydro-4H-pyrazolo[3,4-d]pyrimidin-4-one monomethanesulfonate] | ≤ 0.01
8 | COc1cc(NC(C)=O)ccc1-c1nc2c(c(C3CCCCC3)nn2C)c(=O)[nH]1 [Example 45, N-[4-(3-cyclohexyl-1-methyl-4-oxo-4,5-dihydro-1H-pyrazolo[3,4-d]pyrimidin-6-yl)-3-methoxyphenyl]acetamide] | ≤ 1
9 | CNCCNS(=O)(=O)c1ccc(-c2nc3c(C)nn(C4CCCCC4)c3c(=O)[nH]2)c(OC)c1 [Example 210-2, 4-(1-Cyclohexyl-3-methyl-7-oxo-6,7-dihydro-1H-pyrazolo[4,3-d]pyrimidin-5-yl)-3-methoxy-N-[2-(methylamino)ethyl]benzenesulfonamide] | ≤ 1
10 | COc1cc(N2CCN(C)CC2)c(F)cc1-c1nc2c(c(C3CCCCC3)nn2C)c(=O)[nH]1 [Example 82, 3-Cyclohexyl-6-[5-fluoro-2-methoxy-4-(4-methyl-1-piperazinyl)phenyl]-1-methyl-1,5-dihydro-4H-pyrazolo[3,4-d]pyrimidin-4-one] | ≤ 0.01
11 | Cc1nn(C2CCCCC2)c2c(=O)[nH]c(-c3ccc(N4CCN(C)CC4)cc3)nc12 [Example 7, 1-Cyclohexyl-3-methyl-5-[4-(4-methyl-1-piperazinyl)phenyl]-1,6-dihydro-7H-pyrazolo[4,3-d]pyrimidin-7-one] | ≤ 1
12 | COc1cc(S(=O)(=O)N2CCC(N)C2)ccc1-c1nc2c(c(C3CCCCC3)nn2C)c(=O)[nH]1 (stereo not drawn) [Example 172, 6-{4-[(3-Amino-1-pyrrolidinyl)sulfonyl]-2-methoxyphenyl}-3-cyclohexyl-1-methyl-1,5-dihydro-4H-pyrazolo[3,4-d]pyrimidin-4-one monomethanesulfonate] | ≤ 1
13 | COc1cc(S(=O)(=O)N2CCC(C(=O)O)CC2)ccc1-c1nc2c(c(C3CCCCC3)nn2C)c(=O)[nH]1 [Example 54, 1-{[4-(3-Cyclohexyl-1-methyl-4-oxo-4,5-dihydro-1H-pyrazolo[3,4-d]pyrimidin-6-yl)-3-methoxyphenyl]sulfonyl}-4-piperidinecarboxylic acid] | ≤ 1
14 | COc1cc(NC(C)=O)ccc1-c1nc2c(C)nn(C3CCCCC3)c2c(=O)[nH]1 [Example 10, N-[4-(1-cyclohexyl-3-methyl-7-oxo-6,7-dihydro-1H-pyrazolo[4,3-d]pyrimidin-5-yl)-3-methoxyphenyl]acetamide] | ≤ 1
15 | COc1cc(N2CCC(OC)CC2)ccc1-c1nc2c(c(C3CCCCC3)nn2C)c(=O)[nH]1 [Example 62, 3-Cyclohexyl-6-[2-methoxy-4-(4-methoxy-1-piperidinyl)phenyl]-1-methyl-1,5-dihydro-4H-pyrazolo[3,4-d]pyrimidin-4-one monomethanesulfonate] | ≤ 0.01
16 | CCOc1cc(N2CCC(N)CC2)ccc1-c1nc2c(C)nn(C3CCCCC3)c2c(=O)[nH]1 [Example 260, 5-[4-(4-Amino-1-piperidinyl)-2-ethoxyphenyl]-1-cyclohexyl-3-methyl-1,6-dihydro-7H-pyrazolo[4,3-d]pyrimidin-7-one] | ≤ 0.01
17 | COc1cc(N2CCCN(C)CC2)ccc1-c1nc2c(c(C3CCCCC3)nn2C)c(=O)[nH]1 [Example 136, 3-Cyclohexyl-6-[2-methoxy-4-(4-methyl-1,4-diazepan-1-yl)phenyl]-1-methyl-1,5-dihydro-4H-pyrazolo[3,4-d]pyrimidin-4-one monomethanesulfonate] | ≤ 0.01
18 | COc1cc(N2CCNCC2)ccc1-c1nc2c(c(C3CCCCC3)nn2C)c(=O)[nH]1 [Example 60, 3-Cyclohexyl-6-[2-methoxy-4-(1-piperazinyl)phenyl]-1-methyl-1,5-dihydro-4H-pyrazolo[3,4-d]pyrimidin-4-one] | ≤ 0.01
19 | COc1cc(CN2CCC(O)CC2)ccc1-c1nc2c(C)nn(C3CCCCC3)c2c(=O)[nH]1 [Example 236, 1-Cyclohexyl-5-{4-[(4-hydroxy-1-piperidinyl)methyl]-2-methoxyphenyl}-3-methyl-1,6-dihydro-7H-pyrazolo[4,3-d]pyrimidin-7-one] | ≤ 1
20 | CCN(CCO)c1ccc(-c2nc3c(C)nn(C4CCCCC4)c3c(=O)[nH]2)c(OC)c1 [Example 115, 1-Cyclohexyl-5-{4-[(2-hydroxyethyl)(ethyl)amino]-2-methoxyphenyl}-3-methyl-1,6-dihydro-7H-pyrazolo[4,3-d]pyrimidin-7-one monohydrochloride] | ≤ 1
21 | CNC1CCN(S(=O)(=O)c2ccc(-c3nc4c(C)nn(C5CCCCC5)c4c(=O)[nH]3)c(OC)c2)CC1 [Example 222, 1-Cyclohexyl-5-(2-methoxy-4-{[4-(methylamino)-1-piperidinyl]sulfonyl}phenyl)-3-methyl-1,6-dihydro-7H-pyrazolo[4,3-d]pyrimidin-7-one] | ≤ 1
22 | COc1cc([N+](=O)[O-])ccc1-c1nc2c(C)nn(C3CCCCC3)c2c(=O)[nH]1 [Example 8, 1-Cyclohexyl-5-(2-methoxy-4-nitrophenyl)-3-methyl-1,6-dihydro-7H-pyrazolo[4,3-d]pyrimidin-7-one] | ≤ 1
23 | COc1cc(N2CCC3(CC2)OCCO3)ccc1-c1nc2c(c(C3CCCCC3)nn2C)c(=O)[nH]1 [Example 29, 3-Cyclohexyl-6-[4-(1,4-dioxa-8-azaspiro[4,5]deca-8-yl)-2-methoxyphenyl]-1-methyl-1,5-dihydro-4H-pyrazolo[3,4-d]pyrimidin-4-one] | ≤ 1
24 | CCN1CCN(S(=O)(=O)c2ccc(-c3nc4c(C)nn(C5CCCCC5)c4c(=O)[nH]3)c(OC)c2)CC1 [Example 218, 1-Cyclohexyl-5-{4-[(4-ethyl-1-piperazinyl)sulfonyl]-2-methoxyphenyl}-3-methyl-1,6-dihydro-7H-pyrazolo[4,3-d]pyrimidin-7-one] | ≤ 1
25 | CNc1ccc(-c2nc3c(c(C4CCCCC4)nn3C)c(=O)[nH]2)c(OC)c1 [Example 47, 3-Cyclohexyl-6-[2-methoxy-4-(methylamino)phenyl]-1-methyl-1,5-dihydro-4H-pyrazolo[3,4-d]pyrimidin-4-one] | ≤ 0.01
26 | COc1cc(N2CC[C@@H](O)C2)ccc1-c1nc2c(C)nn(C3CCCCC3)c2c(=O)[nH]1 [Example 270, 1-Cyclohexyl-5-{4-[(3R)-3-hydroxypyrrolidinyl]-2-methoxyphenyl}-3-methyl-1,6-dihydro-7H-pyrazolo[4,3-d]pyrimidin-7-one] | ≤ 1
27 | COc1cc(OC2CCN(C)CC2)ccc1-c1nc2c(c(C3CCCCC3)nn2C)c(=O)[nH]1 [Example 42, 3-Cyclohexyl-6-{2-methoxy-4-[(-methyl-4-piperidinyl)oxy]phenyl}-1-methyl-1,5-dihydro-4H-pyrazolo[3,4-d]pyrimidin-4-one monomaleate] | ≤ 1
